US20230085307A1, “PYRIDAZINONE COMPOUND AND HERBICIDE” (NISSAN CHEMICAL CORPORATION, priority 2019, published 2023)

Legend:
blackgrass [1] = assay: Test Example 4: herbicidal effect by soil treatment (Table 19, symbol J); assay type: in vivo, blackgrass (Alopecurus myosuroides); conditions: amount of applied herbicide 320 g/ha
Outline: (§1)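 Soil-surface application: an emulsion agent diluted with water to the predetermined dose is sprayed uniformly over seeds lying under roughly 1.5 cm of sterilized diluvial soil. Boxes stay in a greenhouse at 25° C. to 30° C. Three weeks later, each species is graded on previously defined criteria.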

lambsquarters [2] = assay: Test Example 4: herbicidal effect by soil treatment (Table 19, symbol O); assay type: in vivo, lambsquarters (Chenopodium album); conditions: amount of applied herbicide 320 g/ha
Outline: as §1

barnyard grass [3] = assay: Test Example 3: herbicidal effect by foliage application, Wagner pot (Table 18, symbol H); assay type: in vivo, barnyard grass (Echinochloa crus-galli); conditions: 320 g/ha
Outline: (§2)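 Plants were sown in alluvial soil held under 0.1–0.5 cm standing water and grown 14 days in a greenhouse at 25–30 °C. An emulsifiable formulation, water-diluted to the set dose, was then sprayed onto the foliage, and effects were scored three weeks later using previously defined criteria.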

wild oat [4] = assay: Test Example 4: herbicidal effect by soil treatment (Table 19, symbol I); assay type: in vivo, wild oat (Avena fatua); conditions: amount of applied herbicide 320 g/ha
Outline: as §1

southern crabgrass [5] = assay: Test Example 5: herbicidal effect by foliage application, plastic box (Table 20, symbol F); assay type: in vivo, southern crabgrass (Digitaria ciliaris); conditions: foliage application, 320 g/ha, three weeks after application
Outline: (§3)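 Sow seeds spot-wise in sterilized diluvial soil; cover with ~1.5 cm soil. Grow 14 days in greenhouse, 25° C. to 30° C. Spray foliage with emulsion diluted to predetermined amount. Rate effect after 3 weeks.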

barnyard grass [6] = assay: Test Example 5: herbicidal effect by foliage application, plastic box (Table 20, symbol H); assay type: in vivo, barnyard grass (Echinochloa crus-galli); conditions: foliage application, 320 g/ha, three weeks after application
Outline: as §3

wild oat [7] = assay: Test Example 5: herbicidal effect by foliage application, plastic box (Table 20, symbol I); assay type: in vivo, wild oat (Avena fatua); conditions: foliage application, 320 g/ha, three weeks after application
Outline: as §3

redroot pigweed [8] = assay: Test Example 4: herbicidal effect by soil treatment (Table 19, symbol N); assay type: in vivo, redroot pigweed (Amaranthus retroflexus); conditions: amount of applied herbicide 320 g/ha
Outline: as §1

persian speedwell [9] = assay: Test Example 5: herbicidal effect by foliage application, plastic box (Table 20, symbol R); assay type: in vivo, Persian speedwell (Veronica persica); conditions: foliage application, 320 g/ha, three weeks after application
Outline: as §3

southern crabgrass [10] = assay: Test Example 4: herbicidal effect by soil treatment (Table 19, symbol F); assay type: in vivo, southern crabgrass (Digitaria ciliaris); conditions: amount of applied herbicide 320 g/ha
Outline: as §1

chickweed [11] = assay: Test Example 5: herbicidal effect by foliage application, plastic box (Table 20, symbol P); assay type: in vivo, common chickweed (Stellaria media); conditions: foliage application, 320 g/ha, three weeks after application
Outline: as §3

rice flat sedge = assay: Test Example 3: herbicidal effect by foliage application, Wagner pot (Table 18, symbol E); assay type: in vivo, rice flat sedge (Cyperus iria); conditions: 320 g/ha
Outline: as §2

Chinese sprangletop = assay: Test Example 3: herbicidal effect by foliage application, Wagner pot (Table 18, symbol D); assay type: in vivo, chinese sprangletop (Leptochloa chinensis); conditions: 320 g/ha
Outline: as §2

velvetleaf [12] = assay: Test Example 4: herbicidal effect by soil treatment (Table 19, symbol M); assay type: in vivo, velvetleaf (Abutilon theophrasti); conditions: amount of applied herbicide 320 g/ha
Outline: as §1

persian speedwell [13] = assay: Test Example 4: herbicidal effect by soil treatment (Table 19, symbol R); assay type: in vivo, Persian speedwell (Veronica persica); conditions: amount of applied herbicide 320 g/ha
Outline: as §1

Italian ryegrass [14] = assay: Test Example 4: herbicidal effect by soil treatment (Table 19, symbol K); assay type: in vivo, Italian ryegrass (Lolium multiflorum); conditions: amount of applied herbicide 320 g/ha
Outline: as §1

Italian ryegrass [15] = assay: Test Example 5: herbicidal effect by foliage application, plastic box (Table 20, symbol K); assay type: in vivo, Italian ryegrass (Lolium multiflorum); conditions: foliage application, 320 g/ha, three weeks after application
Outline: as §3

false cleavers [16] = assay: Test Example 5: herbicidal effect by foliage application, plastic box (Table 20, symbol Q); assay type: in vivo, false cleavers (Galium spurium); conditions: foliage application, 320 g/ha, three weeks after application
Outline: as §3

windgrass [17] = assay: Test Example 5: herbicidal effect by foliage application, plastic box (Table 20, symbol L); assay type: in vivo, windgrass (Apera spica-venti); conditions: foliage application, 320 g/ha, three weeks after application
Outline: as §3

green foxtail [18] = assay: Test Example 4: herbicidal effect by soil treatment (Table 19, symbol G); assay type: in vivo, green foxtail (Setaria viridis); conditions: amount of applied herbicide 320 g/ha
Outline: as §1

windgrass [19] = assay: Test Example 4: herbicidal effect by soil treatment (Table 19, symbol L); assay type: in vivo, windgrass (Apera spica-venti); conditions: amount of applied herbicide 320 g/ha
Outline: as §1

chickweed [20] = assay: Test Example 4: herbicidal effect by soil treatment (Table 19, symbol P); assay type: in vivo, common chickweed (Stellaria media); conditions: amount of applied herbicide 320 g/ha
Outline: as §1

lambsquarters [21] = assay: Test Example 5: herbicidal effect by foliage application, plastic box (Table 20, symbol O); assay type: in vivo, lambsquarters (Chenopodium album); conditions: foliage application, 320 g/ha, three weeks after application
Outline: as §3

false cleavers [22] = assay: Test Example 4: herbicidal effect by soil treatment (Table 19, symbol Q); assay type: in vivo, false cleavers (Galium spurium); conditions: amount of applied herbicide 320 g/ha
Outline: as §1

barnyard grass [23] = assay: Test Example 4: herbicidal effect by soil treatment (Table 19, symbol H); assay type: in vivo, barnyard grass (Echinochloa crus-galli); conditions: amount of applied herbicide 320 g/ha
Outline: as §1

green foxtail [24] = assay: Test Example 5: herbicidal effect by foliage application, plastic box (Table 20, symbol G); assay type: in vivo, green foxtail (Setaria viridis); conditions: foliage application, 320 g/ha, three weeks after application
Outline: as §3

velvetleaf [25] = assay: Test Example 5: herbicidal effect by foliage application, plastic box (Table 20, symbol M); assay type: in vivo, velvetleaf (Abutilon theophrasti); conditions: foliage application, 320 g/ha, three weeks after application
Outline: as §3

blackgrass [26] = assay: Test Example 5: herbicidal effect by foliage application, plastic box (Table 20, symbol J); assay type: in vivo, blackgrass (Alopecurus myosuroides); conditions: foliage application, 320 g/ha, three weeks after application
Outline: as §3

redroot pigweed [27] = assay: Test Example 5: herbicidal effect by foliage application, plastic box (Table 20, symbol N); assay type: in vivo, redroot pigweed (Amaranthus retroflexus); conditions: foliage application, 320 g/ha, three weeks after application
Outline: as §3

Structure (SMILES): CCCC(=O)Oc1c(C)nn(C)c(=O)c1-c1c(-c2ccc(OC(C)C)cc2)sc2cc(Cl)ccc12 [3-042]
- J: blackgrass, herbicidal effect grade (blackgrass [1]): 0 (Herbicidal rate of 5% or less (almost no effect))
- O: lambsquarters, herbicidal effect grade (lambsquarters [2]): 0 (Herbicidal rate of 5% or less (almost no effect))
- herbicidal effect on barnyard grass (H) (barnyard grass [3]): 4 (Herbicidal rate of 70% or more and less than 90%)
- I: wild oat, herbicidal effect grade (wild oat [4]): 0 (Herbicidal rate of 5% or less (almost no effect))
- F: southern crabgrass, herbicidal effect grade (southern crabgrass [5]): 0 (Herbicidal rate of 5% or less (almost no effect))
- H: barnyard grass, herbicidal effect grade (barnyard grass [6]): 0 (Herbicidal rate of 5% or less (almost no effect))
- I: wild oat, herbicidal effect grade (wild oat [7]): 0 (Herbicidal rate of 5% or less (almost no effect))
- N: redroot pigweed, herbicidal effect grade (redroot pigweed [8]): 3 (Herbicidal rate of 40% or more and less than 70%)
- R: persian speedwell, herbicidal effect grade (persian speedwell [9]): 0 (Herbicidal rate of 5% or less (almost no effect))
- F: southern crabgrass, herbicidal effect grade (southern crabgrass [10]): 0 (Herbicidal rate of 5% or less (almost no effect))
- P: chickweed, herbicidal effect grade (chickweed [11]): 0 (Herbicidal rate of 5% or less (almost no effect))
- herbicidal effect on rice flat sedge (E) (rice flat sedge): 3 (Herbicidal rate of 40% or more and less than 70%)
- herbicidal effect on Chinese sprangletop (D) (Chinese sprangletop): 0 (Herbicidal rate of 5% or less (almost no effect))
- M: velvetleaf, herbicidal effect grade (velvetleaf [12]): 0 (Herbicidal rate of 5% or less (almost no effect))
- R: persian speedwell, herbicidal effect grade (persian speedwell [13]): 0 (Herbicidal rate of 5% or less (almost no effect))
- K: Italian ryegrass, herbicidal effect grade (Italian ryegrass [14]): 0 (Herbicidal rate of 5% or less (almost no effect))
- K: Italian ryegrass, herbicidal effect grade (Italian ryegrass [15]): 0 (Herbicidal rate of 5% or less (almost no effect))
- Q: false cleavers, herbicidal effect grade (false cleavers [16]): 0 (Herbicidal rate of 5% or less (almost no effect))
- L: windgrass, herbicidal effect grade (windgrass [17]): 0 (Herbicidal rate of 5% or less (almost no effect))
- G: green foxtail, herbicidal effect grade (green foxtail [18]): 0 (Herbicidal rate of 5% or less (almost no effect))
- L: windgrass, herbicidal effect grade (windgrass [19]): 0 (Herbicidal rate of 5% or less (almost no effect))
- P: chickweed, herbicidal effect grade (chickweed [20]): 0 (Herbicidal rate of 5% or less (almost no effect))
- O: lambsquarters, herbicidal effect grade (lambsquarters [21]): 3 (Herbicidal rate of 40% or more and less than 70%)
- Q: false cleavers, herbicidal effect grade (false cleavers [22]): 0 (Herbicidal rate of 5% or less (almost no effect))
- H: barnyard grass, herbicidal effect grade (barnyard grass [23]): 0 (Herbicidal rate of 5% or less (almost no effect))
- G: green foxtail, herbicidal effect grade (green foxtail [24]): 0 (Herbicidal rate of 5% or less (almost no effect))
- M: velvetleaf, herbicidal effect grade (velvetleaf [25]): 3 (Herbicidal rate of 40% or more and less than 70%)
- J: blackgrass, herbicidal effect grade (blackgrass [26]): 0 (Herbicidal rate of 5% or less (almost no effect))
- N: redroot pigweed, herbicidal effect grade (redroot pigweed [27]): 3 (Herbicidal rate of 40% or more and less than 70%)

Structure (SMILES): COc1ccc(-c2sc3cc(C)ccc3c2-c2c(O)c(C)nn(C)c2=O)cc1 [3-051]
- J: blackgrass, herbicidal effect grade (blackgrass [1]): 0 (Herbicidal rate of 5% or less (almost no effect))
- O: lambsquarters, herbicidal effect grade (lambsquarters [2]): 0 (Herbicidal rate of 5% or less (almost no effect))
- herbicidal effect on barnyard grass (H) (barnyard grass [3]): 1 (Herbicidal rate of 5% or more and less than 20%)
- I: wild oat, herbicidal effect grade (wild oat [4]): 0 (Herbicidal rate of 5% or less (almost no effect))
- F: southern crabgrass, herbicidal effect grade (southern crabgrass [5]): 0 (Herbicidal rate of 5% or less (almost no effect))
- H: barnyard grass, herbicidal effect grade (barnyard grass [6]): 0 (Herbicidal rate of 5% or less (almost no effect))
- I: wild oat, herbicidal effect grade (wild oat [7]): 0 (Herbicidal rate of 5% or less (almost no effect))
- N: redroot pigweed, herbicidal effect grade (redroot pigweed [8]): 0 (Herbicidal rate of 5% or less (almost no effect))
- R: persian speedwell, herbicidal effect grade (persian speedwell [9]): 5 (Herbicidal rate of 90% or more (almost completely withered))
- F: southern crabgrass, herbicidal effect grade (southern crabgrass [10]): 0 (Herbicidal rate of 5% or less (almost no effect))
- P: chickweed, herbicidal effect grade (chickweed [11]): 4 (Herbicidal rate of 70% or more and less than 90%)
- herbicidal effect on rice flat sedge (E) (rice flat sedge): 3 (Herbicidal rate of 40% or more and less than 70%)
- herbicidal effect on Chinese sprangletop (D) (Chinese sprangletop): 0 (Herbicidal rate of 5% or less (almost no effect))
- M: velvetleaf, herbicidal effect grade (velvetleaf [12]): 0 (Herbicidal rate of 5% or less (almost no effect))
- R: persian speedwell, herbicidal effect grade (persian speedwell [13]): 4 (Herbicidal rate of 70% or more and less than 90%)
- K: Italian ryegrass, herbicidal effect grade (Italian ryegrass [14]): 0 (Herbicidal rate of 5% or less (almost no effect))
- K: Italian ryegrass, herbicidal effect grade (Italian ryegrass [15]): 1 (Herbicidal rate of 5% or more and less than 20%)
- Q: false cleavers, herbicidal effect grade (false cleavers [16]): 0 (Herbicidal rate of 5% or less (almost no effect))
- L: windgrass, herbicidal effect grade (windgrass [17]): 0 (Herbicidal rate of 5% or less (almost no effect))
- G: green foxtail, herbicidal effect grade (green foxtail [18]): 0 (Herbicidal rate of 5% or less (almost no effect))
- L: windgrass, herbicidal effect grade (windgrass [19]): 0 (Herbicidal rate of 5% or less (almost no effect))
- P: chickweed, herbicidal effect grade (chickweed [20]): 0 (Herbicidal rate of 5% or less (almost no effect))
- O: lambsquarters, herbicidal effect grade (lambsquarters [21]): 0 (Herbicidal rate of 5% or less (almost no effect))
- Q: false cleavers, herbicidal effect grade (false cleavers [22]): 0 (Herbicidal rate of 5% or less (almost no effect))
- H: barnyard grass, herbicidal effect grade (barnyard grass [23]): 0 (Herbicidal rate of 5% or less (almost no effect))
- G: green foxtail, herbicidal effect grade (green foxtail [24]): 0 (Herbicidal rate of 5% or less (almost no effect))
- M: velvetleaf, herbicidal effect grade (velvetleaf [25]): 0 (Herbicidal rate of 5% or less (almost no effect))
- J: blackgrass, herbicidal effect grade (blackgrass [26]): 0 (Herbicidal rate of 5% or less (almost no effect))
- N: redroot pigweed, herbicidal effect grade (redroot pigweed [27]): 0 (Herbicidal rate of 5% or less (almost no effect))
